Results as given in PubChem BioAssay AID248 (DTP/NCI, 2004).
Where “and” joins values, the source holds several entries; their conditions need not be identical. Equal entries are not always repeated. Toxic doses and inconclusive results are not listed.

Tested on: L1210 leukemia ip in BDF1 mice, survival T/C
Experiment: NCI In Vivo Anticancer Drug Screen. Data for tumor model L1210 Leukemia (intraperitoneal) in B6D2F1 (BDF1) mice
Details: endpoint: mean survival time, higher = longer survival
Outline: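 Survival endpoint. Drug-treated group vs vehicle group, expressed as T divided by C. Tumor passaged by transplantation.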

[1] = dose: 100.0 mg/kg/injection, schedule: Q04DX002 (ip), vehicle: Klucel (hydroxypropylcellulose) (HPC)
[2] = dose: 400.0 mg/kg/injection, schedule: Q04DX002 (ip), vehicle: Klucel (hydroxypropylcellulose) (HPC)
[3] = dose: 100.0 mg/kg/injection, schedule: Q04DX003 (ip), vehicle: Klucel (hydroxypropylcellulose) (HPC)
[4] = dose: 200.0 mg/kg/injection, schedule: Q04DX003 (ip), vehicle: Klucel (hydroxypropylcellulose) (HPC)
[5] = dose: 100.0 mg/kg/injection, schedule: Q01DX001 (ip), vehicle: other
[6] = dose: 200.0 mg/kg/injection, schedule: Q01DX001 (ip), vehicle: other
[7] = dose: 400.0 mg/kg/injection, schedule: Q01DX001 (ip), vehicle: other
[8] = dose: 100.0 mg/kg/injection, schedule: Q01DX009 (ip), vehicle: Klucel (hydroxypropylcellulose) (HPC)
[9] = dose: 200.0 mg/kg/injection, schedule: Q01DX009 (ip), vehicle: Klucel (hydroxypropylcellulose) (HPC)
[10] = dose: 400.0 mg/kg/injection, schedule: Q01DX009 (ip), vehicle: Klucel (hydroxypropylcellulose) (HPC)
[11] = dose: 400.0 mg/kg/injection, schedule: Q04DX003 (ip), vehicle: Klucel (hydroxypropylcellulose) (HPC)
[12] = dose: 200.0 mg/kg/injection, schedule: Q04DX002 (ip), vehicle: Klucel (hydroxypropylcellulose) (HPC)
[13] = dose: 100.0 mg/kg/injection, schedule: Q04DX003 (ip), vehicle: saline
[14] = dose: 25.0 mg/kg/injection, schedule: Q04DX003 (ip), vehicle: Klucel (hydroxypropylcellulose) (HPC)
[15] = dose: 50.0 mg/kg/injection, schedule: Q04DX003 (ip), vehicle: Klucel (hydroxypropylcellulose) (HPC)

Compound: CCOC(=O)NC1C2CC3C(C2)C31 (stereo not given)
- T/C (dose: 50.0 mg/kg/injection, schedule: Q01DX001 (ip), vehicle: carboxymethylcellulose (CMC)): 107 % of control
- T/C (dose: 100.0 mg/kg/injection, schedule: Q01DX001 (ip), vehicle: carboxymethylcellulose (CMC)): 103 % of control
- T/C (dose: 200.0 mg/kg/injection, schedule: Q01DX001 (ip), vehicle: carboxymethylcellulose (CMC)): 101 % of control
- T/C (dose: 400.0 mg/kg/injection, schedule: Q01DX001 (ip), vehicle: carboxymethylcellulose (CMC)): 109 % of control

Compound: N#C[S-].N#C[S-].N#C[S-].N#C[S-].[Co]
- T/C (dose: 5.0 mg/kg/injection, schedule: Q01DX001 (ip), vehicle: saline): 96 % of control
- T/C (dose: 10.0 mg/kg/injection, schedule: Q01DX001 (ip), vehicle: saline): 104 % of control
- T/C (dose: 20.0 mg/kg/injection, schedule: Q01DX001 (ip), vehicle: saline): 106 % of control

Compound: CCOC(=O)c1cc2c(=O)c(C(=O)OCC)c[nH]c2o1
- T/C [1]: 104 % of control
- T/C [2]: 104 % of control

Compound: O=[n+]1ccn2ccccc2c1
- T/C (dose: 50.0 mg/kg/injection, schedule: Q01DX009 (ip), vehicle: saline): 100 % of control
- T/C (dose: 100.0 mg/kg/injection, schedule: Q01DX009 (ip), vehicle: saline): 102 % of control
- T/C [3]: 98 % of control
- T/C [4]: 104 % of control

Compound: C=CNC(=O)Oc1ccccc1
- T/C [5]: 96 % of control
- T/C [6]: 100 % of control
- T/C [7]: 91 % of control

Compound: O=S(=O)(C#Cc1ccccc1)c1ccccc1
- T/C [1]: 89 % of control

Compound: O=C1CCCCCCC12CCCCC2
- T/C [8]: 88 % of control
- T/C [3]: 102 % of control
- T/C [9]: 98 % of control
- T/C [4]: 95 % of control
- T/C [10]: 98 % of control
- T/C [11]: 91 % of control

Compound: COC1OC2COC(c3ccccc3)OC2C(OC(C)=O)C1OS(=O)(=O)c1ccc(C)cc1 (stereo not given)
- T/C [1]: 109 % of control
- T/C [12]: 88 % of control
- T/C [2]: 109 % of control

Compound: Cc1ccccc1C(C)(O)Cc1nccn1Cc1ccccc1 (stereo not given)
- T/C [13]: 90 % of control
- T/C (dose: 200.0 mg/kg/injection, schedule: Q04DX003 (ip), vehicle: saline): 95 % of control
- T/C (dose: 400.0 mg/kg/injection, schedule: Q04DX003 (ip), vehicle: saline): 103 % of control

Compound: CC(C)=CCC/C(C)=C/CNc1ncnc2c1ncn2C1OC(CO)C(O)C1O (stereo not given)
- T/C (dose: 100.0 mg/kg/injection, schedule: Q01DX005 (ip), vehicle: saline): 95 % of control
- T/C (dose: 200.0 mg/kg/injection, schedule: Q01DX005 (ip), vehicle: saline): 94 % of control

Compound: CC(C)CCn1ccc(N)nc1=O
- T/C (dose: 25.0 mg/kg/injection, schedule: Q01DX001 (ip), vehicle: saline with Tween-80): 97 % of control
- T/C (dose: 50.0 mg/kg/injection, schedule: Q01DX001 (ip), vehicle: saline with Tween-80): 101 % of control
- T/C (dose: 100.0 mg/kg/injection, schedule: Q01DX001 (ip), vehicle: saline with Tween-80): 90 % of control

Compound: O=P1(N(CCCl)CCCl)N(Cc2ccccc2)c2ccccc2N1Cc1ccccc1
- T/C (dose: 100.0 mg/kg/injection, schedule: Q01DX001 (ip), vehicle: Klucel (hydroxypropylcellulose) (HPC)): 102 % of control
- T/C [3]: 102 % of control
- T/C (dose: 200.0 mg/kg/injection, schedule: Q01DX001 (ip), vehicle: Klucel (hydroxypropylcellulose) (HPC)): 94 % of control
- T/C [4]: 98 % of control
- T/C (dose: 400.0 mg/kg/injection, schedule: Q01DX001 (ip), vehicle: Klucel (hydroxypropylcellulose) (HPC)): 100 % of control
- T/C [11]: 101 % of control

Compound: CCCCCCCCCCCCOC(=O)OC1CCC2(C)C(=CCC3C2CCC2(C)C(C(C)CCCC(C)C)CCC32)C1 (stereo not given)
- T/C (dose: 100.0 mg/kg/injection, schedule: Q01DX008 (sc), vehicle: olive oil, sesame oil, peanut oil): 111 % of control
- T/C (dose: 100.0 mg/kg/injection, schedule: Q04DX003 (sc), vehicle: olive oil, sesame oil, peanut oil): 109 % of control
- T/C (dose: 200.0 mg/kg/injection, schedule: Q01DX008 (sc), vehicle: olive oil, sesame oil, peanut oil): 107 % of control
- T/C (dose: 200.0 mg/kg/injection, schedule: Q04DX003 (sc), vehicle: olive oil, sesame oil, peanut oil): 100 % of control
- T/C (dose: 400.0 mg/kg/injection, schedule: Q01DX008 (sc), vehicle: olive oil, sesame oil, peanut oil): 107 % of control
- T/C (dose: 400.0 mg/kg/injection, schedule: Q04DX003 (sc), vehicle: olive oil, sesame oil, peanut oil): 109 % of control

Compound: ClC1OC(Cl)(Cl)C(Cl)(Cl)OC1(Cl)Cl (stereo not given)
- T/C [8]: 103 % of control
- T/C [3]: 107 % of control
- T/C [9]: 93 % of control
- T/C [4]: 94 % of control
- T/C [10]: 101 % of control
- T/C [11]: 96 % of control

Compound: CCCCCCCCCCCCCCOc1ccc(C=O)cc1OC
- T/C [3]: 96 % of control
- T/C [4]: 93 % of control
- T/C [11]: 91 % of control

Compound: O=C(O)CC1(O)CCCC1
- T/C (dose: 25.0 mg/kg/injection, schedule: Q04DX003 (ip), vehicle: saline): 100 % of control
- T/C (dose: 50.0 mg/kg/injection, schedule: Q04DX003 (ip), vehicle: saline): 96 % of control
- T/C [13]: 107 % of control

Compound: COC(=O)/C(O)=C/C(N)=O.COC(=O)/C(O)=C/C(N)=O.[Cu]
- T/C (dose: 9.37 mg/kg/injection, schedule: Q01DX001 (ip), vehicle: carboxymethylcellulose (CMC)): 89 % of control
- T/C (dose: 18.75 mg/kg/injection, schedule: Q01DX001 (ip), vehicle: carboxymethylcellulose (CMC)): 87 % of control
- T/C (dose: 37.5 mg/kg/injection, schedule: Q01DX001 (ip), vehicle: carboxymethylcellulose (CMC)): 96 % of control

Compound: COC(C)C/C=N/Nc1nnc(N/N=C/CC(C)OC)c2ccccc12 (stereo not given)
- T/C (dose: 5.0 mg/kg/injection, schedule: Q01DX001 (ip), vehicle: carboxymethylcellulose (CMC)): 96 % of control
- T/C (dose: 10.0 mg/kg/injection, schedule: Q01DX001 (ip), vehicle: carboxymethylcellulose (CMC)): 93 % of control

Compound: ClC1CCC[N-]C1.ClC1CCC[N-]C1.[Cl][Pt+2][Cl] (stereo not given)
- T/C (dose: 50.0 mg/kg/injection, schedule: Q04DX003 (ip), vehicle: saline with Tween-80): 102 % of control
- T/C (dose: 100.0 mg/kg/injection, schedule: Q04DX003 (ip), vehicle: saline with Tween-80): 104 % of control
- T/C (dose: 200.0 mg/kg/injection, schedule: Q04DX003 (ip), vehicle: saline with Tween-80): 102 % of control

Compound: CCN(CC)c1ccc(C(=S)c2ccc(N(CC)CC)cc2)cc1
- T/C [5]: 91 % of control
- T/C [6]: 91 % of control
- T/C [7]: 95 % of control

Compound: CCCCCCCCCCCCCCCCCSc1cccc(C)c1
- T/C [3]: 93 % of control
- T/C [4]: 88 % of control

Compound: CC1=C2CCCC(=O)C2(C)CCC1=O (stereo not given)
- T/C [1]: 107 % of control
- T/C [12]: 96 % of control

Compound: CN1CCN(C(c2ccccc2)c2ccccc2)CC1
- T/C (dose: 3.12 mg/kg/injection, schedule: Q01DX009 (ip), vehicle: Klucel (hydroxypropylcellulose) (HPC)): 97 % of control
- T/C (dose: 6.25 mg/kg/injection, schedule: Q01DX009 (ip), vehicle: Klucel (hydroxypropylcellulose) (HPC)): 102 % of control
- T/C (dose: 12.5 mg/kg/injection, schedule: Q01DX009 (ip), vehicle: Klucel (hydroxypropylcellulose) (HPC)): 97 % of control
- T/C (dose: 25.0 mg/kg/injection, schedule: Q01DX009 (ip), vehicle: Klucel (hydroxypropylcellulose) (HPC)): 108 % of control
- T/C [14]: 97 % of control
- T/C (dose: 50.0 mg/kg/injection, schedule: Q01DX009 (ip), vehicle: Klucel (hydroxypropylcellulose) (HPC)): 103 % of control
- T/C [15]: 92 % of control

Compound: NC(=O)Cc1csc2ccccc12
- T/C (dose: 100.0 mg/kg/injection, schedule: Q01DX001 (ip), vehicle: saline): 101 % of control
- T/C (dose: 200.0 mg/kg/injection, schedule: Q01DX001 (ip), vehicle: saline): 106 % of control

Compound: CCCc1ccccc1NC(=O)NCCCl
- T/C [14]: 106 % of control
- T/C [15]: 101 % of control
- T/C [3]: 105 % of control and 86 % of control
- T/C [4]: 89 % of control
- T/C [11]: 88 % of control

Compound: Nc1ccc(Cc2ccc(N)c(Cl)c2)cc1Cl
- T/C [3]: 100 % of control
- T/C [4]: 91 % of control
- T/C [11]: 100 % of control

Compound: CCC(=O)NC1=C(N2CC2C)C(=O)C(NC(=O)CC)=C(N2CC2C)C1=O (stereo not given)
- T/C (dose: 3.12 mg/kg/injection, schedule: Q01DX009 (ip), vehicle: saline): 111 % of control
- T/C (dose: 6.25 mg/kg/injection, schedule: Q01DX009 (ip), vehicle: saline): 124 % of control
- T/C (dose: 12.5 mg/kg/injection, schedule: Q01DX009 (ip), vehicle: saline): 153 % of control
- T/C (dose: 25.0 mg/kg/injection, schedule: Q01DX009 (ip), vehicle: saline): 177 % of control
- T/C (dose: 35.0 mg/kg/injection, schedule: Q01DX009 (ip), vehicle: Klucel (hydroxypropylcellulose) (HPC)): 103 % of control
